Biological target: T1, unphosphorylated VEGF-R2Δ50 (FLVK) (Homo sapiens, UniProt P35968, DEL940-989/E990V)
T1 construct: VEGF-R2Δ50 contains residues 806-939 and 990-1171; made in house; host or cells: baculovirus/insect cell system
Assay: VEGF-R2 coupled spectrophotometric assay, unphosphorylated construct (FLVK)
Assay type: biochemical
Conditions: for inhibition at 0.05 µM: percent inhibition at 50 nM
Text: This construct determines the ability of a test compound to inhibit tyrosine kinase activity. A construct (VEGF-R2Δ50) of the cytosolic domain of human vascular endothelial growth factor receptor 2 (VEGF-R2) lacking the 50 central residues of the 68 residues of the kinase insert domain was expressed in a baculovirus/insect cell system. Of the 1356 residues of full-length VEGF-R2, VEGF-R2Δ50 contains residues 806-939 and 990-1171, and also one point mutation (E990V) within the kinase insert domain relative to wild-type VEGF-R2. Autophosphorylation of the purified construct was performed by incubation of the enzyme at a concentration of 4 μM in the presence of 3 mM ATP and 40 mM MgCl2 in 100 mM HEPES, pH 7.5, containing 5% glycerol and 5 mM DTT, at 4° C. for 2 h. […] See Parast et al., Biochemistry, 37, 16788-16801 (1998).
The production of ADP from ATP that accompanies phosphoryl transfer was coupled to oxidation of NADH using phosphoenolpyruvate (PEP) and a system having pyruvate kinase (PK) and lactic dehydrogenase (LDH). The oxidation of NADH was monitored by following the decrease of absorbance at 340 nm ([…]=6.22 cm^−1 mM^−1) using a Beckman DU 650 spectrophotometer. Assay conditions for phosphorylated VEGF-R2Δ50 (indicated as FLVK-P in the tables below) were the following: 1 mM PEP; 250 μM NADH; 50 units of LDH/mL; 20 units of PK/mL; 5 mM DTT; […]; 1 mM ATP; and 25 mM MgCl2 in 200 mM HEPES, pH 7.5. Assay conditions for unphosphorylated VEGF-R2Δ50 (indicated as FLVK in the tables) were the following: 1 mM PEP; 250 μM NADH; 50 units of LDH/mL; 20 units of PK/mL; 5 mM DTT; […]; 3 mM ATP; and 60 mM MgCl2 and 2 mM MnCl2 in 200 mM HEPES, pH 7.5. Assays were initiated with 5 to 40 nM of enzyme. Ki values were determined by measuring enzyme activity in the presence of varying concentrations of test compounds. The percent inhibition at 50 nm (% inhibition@ 50 nm) was determined by linear least-squares regression analysis of absorbance as a function of time. The binding inhibitions were fitted to equation as described by Morrison. The data were analyzed using Enzyme Kinetic and Kaleidagraph software.

T1 sequence (P35968 with tags, fused parts or gaps DEL940-989/E990V limits assumed): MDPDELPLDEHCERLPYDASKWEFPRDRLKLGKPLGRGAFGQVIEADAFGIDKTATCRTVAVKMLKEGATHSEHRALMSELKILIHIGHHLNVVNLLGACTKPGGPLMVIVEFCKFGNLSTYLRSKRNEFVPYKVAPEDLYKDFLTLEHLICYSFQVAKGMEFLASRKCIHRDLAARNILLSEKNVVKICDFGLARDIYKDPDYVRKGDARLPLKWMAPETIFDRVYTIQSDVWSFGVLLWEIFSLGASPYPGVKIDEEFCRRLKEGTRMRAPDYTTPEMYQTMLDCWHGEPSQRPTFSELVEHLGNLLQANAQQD

Ki [nM]	inhibition at 0.05 µM [%]	SMILES
0.701	96	CNC(=O)n1c(C)cc2cc(Oc3ccnc4cc(C(=O)N5C[C@H](OC)[C@H](OC)C5)sc34)ccc21 [Example 4r, 5-[2-(3,4-cis-Dimethoxy-pyrrolidine-1-carbonyl)-thieno[3,2-b]pyridin-7-yloxy]-2-methyl-indole-1-carboxylic acid methylamide]
0.085	98	CNC(=O)n1c(C)cc2cc(Oc3ccnc4cc(C(=O)N5C[C@@H](O)[C@@H](O)C5)sc34)ccc21 [Example 4s, 5-[2-(3,4-cis-Dihydroxy-pyrrolidine-1-carbonyl)-thieno[3,2-b]pyridin-7-yloxy]-2-methyl-indole-1-carboxylic acid methylamide]
0.594	98	CO[C@H]1CN(C(=O)c2cc3nccc(Oc4ccc5c(c4)cc(C)n5C(=O)NC4CC4)c3s2)C[C@H]1OC [Example 4t, 5-[2-(3,4-cis-Dimethoxy-pyrrolidine-1-carbonyl)-thieno[3,2-b]pyridin-7-yloxy]-2-methyl-indole-1-carboxylic acid cyclopropylamide]
0.2	98	Cc1cc2cc(Oc3ccnc4cc(C(=O)N5C[C@@H](O)[C@@H](O)C5)sc34)ccc2n1C(=O)NC1CC1 [Example 4u, 5-[2-(3,4-cis-Dihydroxy-pyrrolidine-1-carbonyl)-thieno[3,2-b]pyridin-7-yloxy]-2-methyl-indole-1-carboxylic acid cyclopropylamide]
0.416	99	C#CCNC(=O)n1c(C)cc2cc(Oc3ccnc4cc(C(=O)N5C[C@H](OC)[C@H](OC)C5)sc34)ccc21 [Example 4v, 5-[2-(3,4-cis-Dimethoxy-pyrrolidine-1-carbonyl)-thieno[3,2-b]pyridin-7-yloxy]-2-methyl-indole-1-carboxylic acid prop-2-ynylamide]
0.172	99	C#CCNC(=O)n1c(C)cc2cc(Oc3ccnc4cc(C(=O)N5C[C@@H](O)[C@@H](O)C5)sc34)ccc21 [Example 4w, 5-[2-(3,4-cis-Dihydroxy-pyrrolidine-1-carbonyl)-thieno[3,2-b]pyridin-7-yloxy]-2-methyl-indole-1-carboxylic acid prop-2-ynylamide]
100	1	CNC(=O)c1c(C)[nH]c2ccc(Oc3ccnc4cc(C(=O)N5CCC[C@@H]5COC)sc34)cc12 [Example 4x, 5-[2-(2R-Methoxymethyl-pyrrolidine-1-carbonyl)-thieno[3,2-b]pyridin-7-yloxy]-2-methyl-1H-indole-3-carboxylic acid methylamide]
0.388	100	Cc1cc2c(F)c(Oc3ccnc4cc(C(=O)N5CC[C@H](O)C5)sc34)ccc2n1C(=O)NC1CC1 [Example 5j, 4-Fluoro-5-[2-(3S-hydroxy-pyrrolidine-1-carbonyl)-thieno[3,2-b]pyridin-7-yloxy]-2-methyl-indole-1-carboxylic acid cyclopropylamide]
0.189	99	CNC(=O)n1c(C)cc2c(F)c(Oc3ccnc4cc(C(=O)N5CC[C@@H](OC)C5)sc34)ccc21 [Example 5l, 4-Fluoro-5-[2-(3R-methoxy-pyrrolidine-1-carbonyl)-thieno[3,2-b]pyridin-7-yloxy]-2-methyl-indole-1-carboxylic acid methylamide]
0.586	98	CNC(=O)n1c(C)cc2c(F)c(Oc3ccnc4cc(C(=O)N5CC[C@@H](O)C5)sc34)ccc21 [Example 5m, 4-Fluoro-5-[2-(3R-hydroxy-pyrrolidine-1-carbonyl)-thieno[3,2-b]pyridin-7-yloxy]-2-methyl-indole-1-carboxylic acid methylamide]
0.279	99	CNC(=O)n1c(C)c(Cl)c2c(F)c(Oc3ccnc4cc(C(=O)N5CC[C@H](O)C5)sc34)ccc21 [Example 6e, 3-Chloro-4-fluoro-5-[2-(3S-hydroxy-pyrrolidine-1-carbonyl)-thieno[3,2-b]pyridin-7-yloxy]-2-methyl-indole-1-carboxylic acid methylamide]
0.154	98	Cc1c(Cl)c2c(F)c(Oc3ccnc4cc(C(=O)N5CC[C@H](O)C5)sc34)ccc2n1C(=O)NC1CC1 [Example 6f, 3-Chloro-4-fluoro-5-[2-(3S-hydroxy-pyrrolidine-1-carbonyl)-thieno[3,2-b]pyridin-7-yloxy]-2-methyl-indole-1-carboxylic acid cyclopropyl-amide]
1.23	97	CNC(=O)n1c(C)c(Cl)c2c(F)c(Oc3ccnc4cc(C(=O)N5CC[C@@H](OC)C5)sc34)ccc21 [Example 6g, 3-Chloro-4-fluoro-5-[2-(3R-methoxy-pyrrolidine-1-carbonyl)-thieno[3,2-b]pyridin-7-yloxy]-2-methyl-indole-1-carboxylic acid methylamide]
0.142	98	C#CCNC(=O)n1c(C)c(Cl)c2c(F)c(Oc3ccnc4cc(C(=O)N5CC[C@@H](OC)C5)sc34)ccc21 [Example 6h, 3-Chloro-4-fluoro-5-[2-((R)-3-methoxy-pyrrolidine-1-carbonyl)-thieno[3,2-b]pyridin-7-yloxy]-2-methyl-indole-1-carboxylic acid prop-2-ynylamide]
0.796	93	CNC(=O)n1c(C)cc2cc(Nc3ccnc4cc(C(=O)N5CC(F)[C@H](OC)C5)sc34)ccc21 (stereo partly drawn) [Example 7a, 5-[(2-{[(4R)-3-Fluoro-4-methoxypyrrolidin-1-yl]carbonyl}thieno[3,2-b]pyridin-7-yl)amino]-N,2-dimethyl-1H-indole-1-carboxamide]
1.91	97	CNC(=O)n1c(C)cc2cc(Nc3ccnc4cc(C(=O)N5CCC5)sc34)ccc21 [Example 7c, 5-[2-(Azetidine-1-carbonyl)-thieno[3,2-b]pyridin-7-ylamino]-2-methyl-indole-1-carboxylic acid methylamide]
0.123	98	CNC(=O)n1c(C)cc2cc(Oc3ccnc4cc(C(=O)N5C[C@H](OC)[C@@H](O)C5)sc34)ccc21 [Example 8c]
0.109	99	CNC(=O)n1c(C)cc2cc(Oc3ccnc4cc(C(=O)N5C[C@H](O)[C@@H](O)C5)sc34)ccc21 [Example 8d]
0.115	98	CCCNC(=O)n1c(C)cc2cc(Oc3ccnc4cc(C(=O)N5C[C@H](OC)[C@@H](OC)C5)sc34)ccc21 [Example 8e, 5-[(2-{[(3S,4S)-3,4-dimethoxypyrrolidin-1-yl]carbonyl}thieno[3,2-b]pyridin-7-yl)oxy]-2-methyl-N-propyl-1H-indole-1-carboxamide]
0.35	99	CCCNC(=O)n1c(C)cc2cc(Oc3ccnc4cc(C(=O)N5C[C@H](O)[C@@H](O)C5)sc34)ccc21 [Example 8f, 5-[(2-{[(3S,4S)-3,4-Dihydroxypyrrolidin-1-yl]carbonyl}thieno[3,2-b]pyridin-7-yl)oxy]-2-methyl-N-propyl-1H-indole-1-carboxamide]
0.142	99	CNC(=O)n1c(C)cc2cc(Oc3ccnc4cc(C(=O)N5CC(F)[C@@H](OC)C5)sc34)ccc21 (stereo partly drawn) [Example 8j, 5-[(2-{[(4S)-3-Fluoro-4-methoxypyrrolidin-1-yl]carbonyl}thieno[3,2-b]pyridin-7-yl)oxy]-N,2-dimethyl-1H-indole-1-carboxamide]

From US6833456B2, “Indolyl-urea derivatives of thienopyridines useful as antiangiogenic agents, and methods for their use” (Agouron Pharmaceuticals, Inc., priority 2002, dated 2004)
